Assay results: patent publication US5051419A, “Prevention or elimination of mycoplasma contamination of animal or plant cell cultures” (Dainippon Pharmaceutical Co., Ltd., priority 1988, dated 1991)
In brackets after ≈: the same amount, converted by molar mass.

Experiments:
mycoplasma [1] = experiment: Anti-mycoplasmal activity (MIC), agar-dilution method, all species of Table 1 together; type: cell-based; details: in words
Method: The minimum growth inhibitory concentrations (MIC; μg/ml) of the test chemicals were measured by the agar-dilution method.
(1) Preparation of a mycoplasma suspension for inoculation
A stored frozen suspension of mycoplasma (0.2 to 0.3 ml) was inoculated in 2 to 3 ml of a preculture medium to be described later. It was serially diluted tenfold until the dilution ratio reached 10,000 times. These diluted solutions were cultivated at 37° C. for 2 to 7 days. A culture having the highest dilution ratio was selected from those cultures in which a color change of the media was noted as a result of mycoplasma growth. It was diluted to 100 times with the preculture medium to prepare a mycoplasma suspension for inoculation.
(2) Preparation of agar plates containing the test chemicals
A 1,000 μg/ml aqueous solution of each test chemical was prepared (a difficultly-soluble chemical was dissolved by adding an equimolar amount of sodium hydroxide; the same applies hereinafter). The solution was used as a base solution and its twofold serial dilutions were prepared. The diluted solutions were pipetted on plastic petri dishes each in an amount of 1 ml. […]

M. arginini G-230 = experiment: Activity of eliminating artificially contaminated mycoplasma from L-929 cells; type: cell-based, Mycoplasma arginini
Method: (§1) Animal cells, experimentally contaminated by mycoplasma, were cultivated for 4 days in a medium containing the test chemical and then sub-cultivated in a medium to which the test chemical was not added in order to determine whether the mycoplasma re-grew (re-contamination).
(§2) (1) Preparation of mycoplasma-contaminated cells
(§3) The mycoplasmas described in Table 3 were each pre-cultivated as in Test Example 1, (1). Two milliliters of the cultures were centifuged at 1,500×g for 30 minutes to separate the mycoplasmas. The isolated mycoplasmas were suspended in 2 ml of 10%-FBS-MEM medium (Eagle's minimum essential medium supplemented with 10% fetal bovine serum and 100 U/ml of penicillin G).
(§4) Separately, mouse fibroblast cells L-929 was suspended in 10%-FBS-MEM medium so that their density became 2.5×10^4 /ml. Four milliliters of the suspension was put in a petri dish (diameter 6 cm) for tissue culture including two circular cover glasses (diameter 1.8 cm), and then 1 ml of the mycoplasma suspension described above was added. The mixture was incubated at 37° C. in 5% CO2 humidified atmosphere for 3 days, and then sub-cultivated twice in order to obtain mycoplasma-contaminated cells. Mycoplasma-contamination was confirmed by the highly specific DNA-fluorochromic staining method (the above cited "Procedures for Isolation and identification of Human, Animal and Plant Mycoplasmas", pages 95-97).
(§5) (2) Experiment of eliminating mycoplasma contamination
(§6) Mycoplasma-contaminated L-929 cells were cultivated as described in the preceding section. A 1,000 μg/ml aqueous solution of a test chemical was prepared, and diluted to predetermined concentrations with Eagle's minimum essential medium. The diluted solutions were added to the culture medium. Two petri dishes were used for each concentration of the test chemical, and two circular cover glasses were put in one of them for examination of mycoplasma. No cover glass was put in the other petri dish, and it was used for subcultivation. Cultivation in the test chemical-containing medium was carried out for 4 days, and thereafter, the cultivation was continued for 3 weeks in a drug-free medium. Medium replacement was effected every 3 to 4 days, and subcultivation was carried out once a week. Examination for mycoplasma contamination was performed on the 4th and 7th days, and thereafter every week. The mycoplasmas were detected by the highly specific DNA-fluorochromic staining method.

mycoplasma [2] = experiment: Activity of eliminating artificially contaminated mycoplasma from L-929 cells, Test Example 3 as a whole; type: cell-based; details: for minimal effective concentration: Mycoplasma, L929, 96 h, L-929 cells, 4 days of treatment, read-out: effective concentration for eliminating mycoplasma contamination
Method: as §1, §2, §3, §4, §5, §6

[3] = tested on: spontaneously contaminated human lung carcinoma cells [I]; experiment: Activity of eliminating spontaneously contaminated mycoplasmas, cell [I]; type: cell-based, mycoplasma species unknown; human cells; also: key: +: mycoplasma positive; -: mycoplasma negative
Method: as §6
(§7) The activity of test compound to eliminate mycoplasma contamination was tested as in Test Example 3 on spontaneously contaminated human lung carcinoma cells [I] and human melanoma cells [II].
(§8) The period during which the cultivation was continued in the presence of the test chemicals was 7 days, and the mycoplasma species which infected the cells were unknown.

[4] = tested on: human melanoma cells [II]; experiment: Activity of eliminating spontaneously contaminated mycoplasmas, cell [II]; type: cell-based, mycoplasma species unknown; human cells; also: key: +: mycoplasma positive; -: mycoplasma negative
Method: as §6, §7, §8

[5] = Cytotoxicity on FL cells (cell proliferation inhibition); type: cell-based, human; details: human, fl human amnion cells; ratio of FL cell IC50 to MIC for mycoplasmas
Method: (§9) Whether test chemicals would inhibit growth of cells was examined.
(§10) A 1,000 μg/ml aqueous solution of each of the test chemicals was serially diluted twofold with Eagle's minimum essential medium.
(§11) FL human-amnion cells (2×10^4 cells) were suspended in 3.6 ml of 10% FBS-MEM medium, put in petri dishes (diameter 60 mm) for tissue culture, and cultivated at 37° C. in 5% CO2 humidified atmosphere for 48 hours. The test chemical solution prepared as above was added in an amount of 0.4 ml to each of the petri dishes in predetermined concentrations, and the cells were cultivated for 3 days. After the cultivation, the medium was removed, and the remainder was washed once with Dulbecco's phosphate buffer (pH 7.4). The cells were peeled off by adding 0.2 ml of a 2.5% trypsin-0.002% EDTA mixed solution (1:9) and properly diluted with 10% FBS-MEM medium. Then, the number of the cells was counted by an Erma hemocytometer.
(§12) The cell proliferation rate was calculated by following formula [formula]

FL human-amnion cells = experiment: as above; type: cell-based; details: for IC50: Homo sapiens, 72 h, FL cells, 3 days, read-out: IC50 (50% cell proliferation inhibitory concentration)
Method: as §9, §10, §11, §12

Staphylococcus aureus = experiment: Antibacterial activity (MIC); type: cell-based; details: for MIC: unit inferred
mycoplasma [6] = details: in words, background; cited from earlier work
mycoplasma [7] = experiment: Activity of eliminating spontaneously contaminated mycoplasmas, Test Example 4 as a whole; type: cell-based
Method: as §7, §8

[8] = tested on: chromosomes of animals or plants; experiment: Deleterious effects on chromosomes; details: in words

CC1CN(c2c(F)c(N)c3c(=O)c(C(=O)O)cn(C4CC4)c3c2F)CCN1 (stereo not shown) [Compound 1]
anti-mycoplasmal activity (MIC) compared with control compounds (mycoplasma [1]): better than those of control compounds 2 to 4
mycoplasma elimination (M. arginini G-230; 0.2 μg/ml, day 0): +
mycoplasma elimination (M. arginini G-230; 0.2 μg/ml, day 4): +
mycoplasma elimination (M. arginini G-230; 0.2 μg/ml, day 7): +
mycoplasma elimination (M. arginini G-230; 0.2 μg/ml, day 14): +
mycoplasma elimination (M. arginini G-230; 0.2 μg/ml, day 28): +
mycoplasma elimination (M. arginini G-230; 0.39 μg/ml, day 0): +
mycoplasma elimination (M. arginini G-230; 0.39 μg/ml, day 4): -
mycoplasma elimination (M. arginini G-230; 0.39 μg/ml, day 7): -
mycoplasma elimination (M. arginini G-230; 0.39 μg/ml, day 14): -
mycoplasma elimination (M. arginini G-230; 0.39 μg/ml, day 28): -
minimal effective concentration (mycoplasma [2]; both species): 0.39 µg/mL
activity of eliminating mycoplasma contamination (mycoplasma [2]; in words): also showed the activity of eliminating mycoplasma contamination
effective concentration relative to compound A (mycoplasma [2]; in words): twice that of compound A
mycoplasma elimination ([3]; 0.2 μg/ml, day 0): +
mycoplasma elimination ([3]; 0.2 μg/ml, day 7): +
mycoplasma elimination ([3]; 0.2 μg/ml, day 14): +
mycoplasma elimination ([3]; 0.2 μg/ml, day 28): +
mycoplasma elimination ([3]; 0.39 μg/ml, day 0): +
mycoplasma elimination ([3]; 0.39 μg/ml, day 7): -
mycoplasma elimination ([3]; 0.39 μg/ml, day 14): -
mycoplasma elimination ([3]; 0.39 μg/ml, day 28): -
mycoplasma elimination ([4]; 0.2 μg/ml, day 0): +
mycoplasma elimination ([4]; 0.2 μg/ml, day 7): -
mycoplasma elimination ([4]; 0.2 μg/ml, day 14): +
mycoplasma elimination ([4]; 0.2 μg/ml, day 21): +
mycoplasma elimination ([4]; 0.2 μg/ml, day 28): +
mycoplasma elimination ([4]; 0.39 μg/ml, day 0): +
mycoplasma elimination ([4]; 0.39 μg/ml, day 7): -
mycoplasma elimination ([4]; 0.39 μg/ml, day 14): -
mycoplasma elimination ([4]; 0.39 μg/ml, day 21): -
mycoplasma elimination ([4]; 0.39 μg/ml, day 28): -
selectivity ratio at 72 h [5]: 66 to 528
IC50 (FL human-amnion cells): 13.2 µg/mL (≈ 34.9 µM)
MIC (Staphylococcus aureus; Staphylococcus aureus): 0.025 µg/mL (≈ 0.0661 µM)

CN(C)c1ccc(O)c2c1C[C@H]1C[C@H]3[C@H](N(C)C)C(O)=C(C(N)=O)C(=O)[C@@]3(O)C(O)=C1C2=O [Compound 3, minocycline]
mycoplasma elimination (M. arginini G-230; 12.5 μg/ml, day 0): +
mycoplasma elimination (M. arginini G-230; 12.5 μg/ml, day 4): -
mycoplasma elimination (M. arginini G-230; 12.5 μg/ml, day 7): -
mycoplasma elimination (M. arginini G-230; 12.5 μg/ml, day 14): +
mycoplasma elimination (M. arginini G-230; 12.5 μg/ml, day 28): +
elimination of mycoplasma and re-growth after removal (mycoplasma [2]; 12.5 μg/ml, 4 days, then drug removed, in words): the cells were mycoplasma-negative after 4 days of cultivation, but when the chemical was removed thereafter, re-growth of mycoplasma was observed
minimum growth inhibitory concentration (MIC) for mycoplasma (mycoplasma [6]): low
mode of action on mycoplasma (mycoplasma [6]): only act bacteriostatically and not mycoplasmacidally

NCC1CN(c2c(F)c(N)c3c(=O)c(C(=O)O)cn(C4CC4)c3c2F)CCO1 (stereo not shown) [Compound A, 5-amino-7-(2-aminomethylmorpholino)-1-cyclopropyl-6,8-difluoro-1,4-dihydro-4-oxoquinoline-3-carboxylic acid]
anti-mycoplasmal activity (MIC) compared with control compounds (mycoplasma [1]): more potent than those of control compounds 1 to 4
mycoplasma elimination (M. arginini G-230; 0.1 μg/ml, day 0): +
mycoplasma elimination (M. arginini G-230; 0.1 μg/ml, day 4): +
mycoplasma elimination (M. arginini G-230; 0.1 μg/ml, day 7): +
mycoplasma elimination (M. arginini G-230; 0.1 μg/ml, day 14): +
mycoplasma elimination (M. arginini G-230; 0.1 μg/ml, day 28): +
mycoplasma elimination (M. arginini G-230; 0.2 μg/ml, day 0): +
mycoplasma elimination (M. arginini G-230; 0.2 μg/ml, day 4): -
mycoplasma elimination (M. arginini G-230; 0.2 μg/ml, day 7): -
mycoplasma elimination (M. arginini G-230; 0.2 μg/ml, day 14): -
mycoplasma elimination (M. arginini G-230; 0.2 μg/ml, day 28): -
elimination of mycoplasma and re-growth after removal (mycoplasma [2]; 0.2 μg/ml, both species, in words): gave a mycoplasma negative in 4 days from the start of cultivation, and when thereafter subcultivation was performed in the absence of the compound A, no re-growth of mycoplasmas were noted
minimal effective concentration (mycoplasma [2]; both species): 0.2 µg/mL
mycoplasma elimination ([3]; 0.1 μg/ml, day 0): +
mycoplasma elimination ([3]; 0.1 μg/ml, day 7): +
mycoplasma elimination ([3]; 0.1 μg/ml, day 14): +
mycoplasma elimination ([3]; 0.1 μg/ml, day 28): +
mycoplasma elimination ([3]; 0.2 μg/ml, day 0): +
mycoplasma elimination ([3]; 0.2 μg/ml, day 7): -
mycoplasma elimination ([3]; 0.2 μg/ml, day 14): -
mycoplasma elimination ([3]; 0.2 μg/ml, day 28): -
mycoplasma elimination ([4]; 0.1 μg/ml, day 0): +
mycoplasma elimination ([4]; 0.1 μg/ml, day 7): -
mycoplasma elimination ([4]; 0.1 μg/ml, day 14): +
mycoplasma elimination ([4]; 0.1 μg/ml, day 21): +
mycoplasma elimination ([4]; 0.1 μg/ml, day 28): +
mycoplasma elimination ([4]; 0.2 μg/ml, day 0): +
mycoplasma elimination ([4]; 0.2 μg/ml, day 7): -
mycoplasma elimination ([4]; 0.2 μg/ml, day 14): -
mycoplasma elimination ([4]; 0.2 μg/ml, day 21): -
mycoplasma elimination ([4]; 0.2 μg/ml, day 28): -
minimal effective concentration (mycoplasma [7]; Mycoplasma, 168 h, spontaneously contaminated cells [I] and [II]): 0.2 µg/mL
mycoplasma eliminating concentration relative to control compound 1 (mycoplasma [7]; fraction of that of control compound 1): 1/2
mycoplasma eliminating concentration relative to control compound 2 (ciprofloxacin) (mycoplasma [7]; fraction of that of control compound 2): 1/32
selectivity ratio at 72 h [5]: 180 to 1440
IC50 (FL human-amnion cells): 18 µg/mL (≈ 45.6 µM)
safety range (FL human-amnion cells; in words, IC50/MIC): the safety range is broadest in compound A
toxicity on cultivated cells (FL human-amnion cells; in words, summary): little toxicity on cultivated cells
MIC (Staphylococcus aureus; Staphylococcus aureus): 0.0063 µg/mL (≈ 0.016 µM)
antibacterial activity (Staphylococcus aureus; in words): potent antibacterial activity and is superior to control compounds 1 to 4
antibacterial activity relative to compound 1 (Staphylococcus aureus; in words, Staphylococcus aureus): about four times as potent antibacterial activity as compound 1
deleterious effects on chromosomes [8]: excellent
